Measured values from patent US11684597B2, “Administration of tailored feedstock to increase nitro-containing amphenicol antibiotic susceptibility” (U.S. Army Research Laboratory, priority 2019, dated 2023).

Test system: Clostridium acetobutylicum strain ATCC 824
Assay: antibiotic sensitivity test (MIC, OD600 in 96-well plate, anaerobic)
Format: cell-based
Details: for MIC (final concentration of chloramphenicol): after 24 h of growth
Procedure: Bacterial culture conditions and strains have been previously published. All strains and cultures were maintained or grown in an atmosphere of 5.0% H2, 5.0% CO2, and 90.0% N2. Clostridium acetobutylicum strain ATCC 824 was obtained from ATCC and cultured using company protocol at 37° C. into Clostridial growth medium or CGM containing 0.75 g KH2PO4, 0.75 g K2HPO4, 1.0 g NaCl, 0.017 g MnSO4.5H2O, 0.70 g MgSO4.7H2O, 0.01 g FeSO4.7H2O, 2.0 g 1-asparagine, 5.0 g yeast extract, 2.0 g (NH4)2SO4, and 0.5% final concentration of desired carbohydrate—D-glucose, D-galacturonic acid, D-gluconic acid—at pH 6.5. Active cultures from initial growth stock were added to potato glucose medium to be maintained and stored as a spore solution. Potato glucose medium or PGM contains per liter of H2O—150 g grated fresh potato, 10 g D-glucose, 0.5 g (NH4)SO4, and 3 g CaCO3. The medium was boiled for 1 hour and strained through gauze before sterilization and use for culture. Spore solution was activated for culturing through a heat shock at 80° C. for 9 minutes. Shocked spore solution was added to CGM containing the feed stock of choice and grown to late log of 0.8 at optical density of 600 nm (OD600) at 37° C. Theses cultures were then used to perform antibiotic sensitivity experiments.
The protocol for antibiotic sensitivity test was performed as follows in anaerobic conditions: 200 μL of CGM medium containing either 0.5% D-galacturonate or D-glucose was aliquoted into a sterile Costar® 96-well polystyrene flat bottom plate in triplicate per test condition. Chloroamphenicol was dissolved in ethanol at different concentrations. Each chloroamphenicol concentration was added to each well in triplicate and considered a test condition. Test conditions included addition of 1 μL of ethanol, 1 of sterile water, 1 μL 0.1 mg mL^−1, 1 μL 0.25 mg mL^−1, 1 μL 0.5 mg mL^−1, 1 μL 1 mg mL^−1, 1 μL 2.5 mg mL^−1, 1 μL 5 mg mL^−1, 1 μL 10 mg mL^−1, 1 μL 20 mg mL^−1, and 1 μL 10 mg mL^−1. […] The optical density of the cultures in the wells were measured at 600 nm via a commercially available plate reader. […]

With `O=C(N[C@H](CO)[C@H](O)c1ccc([N+](=O)[O-])cc1)C(Cl)Cl` [chloramphenicol] the “MIC (final concentration of chloramphenicol)” value (C. acetobutylicum grown in CGM with 0.5% D-galacturonate (galacturonic acid) as feedstock) was 2.4 µg/mL, the “MIC (final concentration of chloramphenicol)” value (C. acetobutylicum grown in CGM with 0.5% D-glucose as feedstock) was 23.7 µg/mL and the “increase of antibiotic susceptibility with oxidized feed stock compared to glucose as feed stock” value (C. acetobutylicum, in vitro, galacturonate vs glucose) was 10 fold.
